Experimental data: ChEMBL document CHEMBL1154040, “Synthesis and evaluation of novel F-18 labeled fluoroarylvaline derivatives: potential PET imaging agents for tumor detection” (Bioorg Med Chem Lett, 2009)

Tested on: Liver
Experiment: Biodistribution in S180 tumor-bearing KM mouse liver assessed per gram of tissue weight at 240 to 370 kBq, iv after 15 mins
Type: ADME, organism-based
Details: in vivo, 0.25 h

Drug uptake	SMILES
0.47 %ID	OC[C@H]1O[C@@H](O)[C@H]([18F])[C@@H](O)[C@@H]1O [FLUDEOXYGLUCOSE-F18]

Tested on: Heart
Experiment: Biodistribution in S180 tumor-bearing KM mouse heart assessed per gram of tissue weight at 240 to 370 kBq, iv after 120 mins
Type: ADME, organism-based
Details: in vivo, 2 h

Drug uptake	SMILES
6.27 %ID	OC[C@H]1O[C@@H](O)[C@H]([18F])[C@@H](O)[C@@H]1O [FLUDEOXYGLUCOSE-F18]

Tested on: Heart
Experiment: Biodistribution in S180 tumor-bearing KM mouse heart assessed per gram of tissue weight at 240 to 370 kBq, iv after 60 mins
Type: ADME, organism-based
Details: in vivo, 1 h

Drug uptake	SMILES
3.24 %ID	OC[C@H]1O[C@@H](O)[C@H]([18F])[C@@H](O)[C@@H]1O [FLUDEOXYGLUCOSE-F18]

Tested on: Heart
Experiment: Biodistribution in S180 tumor-bearing KM mouse heart assessed per gram of tissue weight at 240 to 370 kBq, iv after 15 mins
Type: ADME, organism-based
Details: in vivo, 0.25 h

Drug uptake	SMILES
2.5 %ID	OC[C@H]1O[C@@H](O)[C@H]([18F])[C@@H](O)[C@@H]1O [FLUDEOXYGLUCOSE-F18]

Tested on: Heart
Experiment: Biodistribution in S180 tumor-bearing KM mouse heart assessed per gram of tissue weight at 240 to 370 kBq, iv after 5 mins
Type: ADME, organism-based
Details: in vivo

Drug uptake	SMILES
2.6 %ID	OC[C@H]1O[C@@H](O)[C@H]([18F])[C@@H](O)[C@@H]1O [FLUDEOXYGLUCOSE-F18]

Tested on: Blood
Experiment: Biodistribution in S180 tumor-bearing KM mouse blood assessed per gram of tissue weight at 240 to 370 kBq, iv after 120 mins
Type: ADME, organism-based
Details: in vivo, 2 h

Drug uptake	SMILES
0.11 %ID	OC[C@H]1O[C@@H](O)[C@H]([18F])[C@@H](O)[C@@H]1O [FLUDEOXYGLUCOSE-F18]

Tested on: Blood
Experiment: Biodistribution in S180 tumor-bearing KM mouse blood assessed per gram of tissue weight at 240 to 370 kBq, iv after 15 mins
Type: ADME, organism-based
Details: in vivo, 0.25 h

Drug uptake	SMILES
0.46 %ID	OC[C@H]1O[C@@H](O)[C@H]([18F])[C@@H](O)[C@@H]1O [FLUDEOXYGLUCOSE-F18]

Tested on: Blood
Experiment: Biodistribution in S180 tumor-bearing KM mouse blood assessed per gram of tissue weight at 240 to 370 kBq, iv after 5 mins
Type: ADME, organism-based
Details: in vivo

Drug uptake	SMILES
1.09 %ID	OC[C@H]1O[C@@H](O)[C@H]([18F])[C@@H](O)[C@@H]1O [FLUDEOXYGLUCOSE-F18]

Tested on: Brain
Experiment: Biodistribution in S180 tumor-bearing KM mouse brain assessed per gram of tissue at 240 to 370 kBq, iv after 120 mins
Type: ADME, organism-based
Details: in vivo, 2 h

Drug uptake	SMILES
1.28 %ID	OC[C@H]1O[C@@H](O)[C@H]([18F])[C@@H](O)[C@@H]1O [FLUDEOXYGLUCOSE-F18]

Tested on: not listed separately
Experiment: Biodistribution in S180 tumor present in KM mouse assessed per gram of tissue at 240 to 370 kBq, iv after 5 mins
Type: ADME, organism-based, Neoplasm
Details: in vivo

Drug uptake	SMILES
1.27 %ID	OC[C@H]1O[C@@H](O)[C@H]([18F])[C@@H](O)[C@@H]1O [FLUDEOXYGLUCOSE-F18]

Tested on: not listed separately
Experiment: Biodistribution in S180 tumor present in KM mouse assessed per gram of tissue at 240 to 370 kBq, iv after 15 mins
Type: ADME, organism-based, Neoplasm
Details: in vivo, 0.25 h

Drug uptake	SMILES
1.56 %ID	OC[C@H]1O[C@@H](O)[C@H]([18F])[C@@H](O)[C@@H]1O [FLUDEOXYGLUCOSE-F18]

Tested on: not listed separately
Experiment: Biodistribution in S180 tumor present in KM mouse assessed per gram of tissue at 240 to 370 kBq, iv after 30 mins
Type: ADME, organism-based, Neoplasm
Details: in vivo, 0.5 h

Drug uptake	SMILES
1.86 %ID	OC[C@H]1O[C@@H](O)[C@H]([18F])[C@@H](O)[C@@H]1O [FLUDEOXYGLUCOSE-F18]

Tested on: not listed separately
Experiment: Biodistribution in S180 tumor present in KM mouse assessed per gram of tissue at 240 to 370 kBq, iv after 60 mins
Type: ADME, organism-based, Neoplasm
Details: in vivo, 1 h

Drug uptake	SMILES
2.16 %ID	OC[C@H]1O[C@@H](O)[C@H]([18F])[C@@H](O)[C@@H]1O [FLUDEOXYGLUCOSE-F18]

Tested on: not listed separately
Experiment: Biodistribution in S180 tumor present in KM mouse assessed per gram of tissue at 240 to 370 kBq, iv after 120 mins
Type: ADME, organism-based, Neoplasm
Details: in vivo, 2 h

Drug uptake	SMILES
1.7 %ID	OC[C@H]1O[C@@H](O)[C@H]([18F])[C@@H](O)[C@@H]1O [FLUDEOXYGLUCOSE-F18]

Tested on: not listed separately
Experiment: Ratio of drug level in S180 tumor to blood in KM mouse at 240 to 370 kBq, iv after 60 mins
Type: ADME, organism-based
Details: tumour, 1 h

tumor/blood ratio	SMILES
19.5	OC[C@H]1O[C@@H](O)[C@H]([18F])[C@@H](O)[C@@H]1O [FLUDEOXYGLUCOSE-F18]

Tested on: not listed separately
Experiment: Ratio of drug level in S180 tumor to brain KM mouse at 240 to 370 kBq, iv after 30 mins
Type: ADME, organism-based
Details: in vivo, 0.5 h

tumor/brain ratio	SMILES
0.61	OC[C@H]1O[C@@H](O)[C@H]([18F])[C@@H](O)[C@@H]1O [FLUDEOXYGLUCOSE-F18]

Tested on: not listed separately
Experiment: Ratio of drug level in S180 tumor to brain KM mouse at 240 to 370 kBq, iv after 60 mins
Type: ADME, organism-based
Details: in vivo, 1 h

tumor/brain ratio	SMILES
1.02	OC[C@H]1O[C@@H](O)[C@H]([18F])[C@@H](O)[C@@H]1O [FLUDEOXYGLUCOSE-F18]

Tested on: not listed separately
Experiment: Ratio of drug level in S180 tumor to brain KM mouse at 240 to 370 kBq, iv after 120 mins
Type: ADME, organism-based
Details: in vivo, 2 h

tumor/brain ratio	SMILES
1.33	OC[C@H]1O[C@@H](O)[C@H]([18F])[C@@H](O)[C@@H]1O [FLUDEOXYGLUCOSE-F18]

Tested on: not listed separately
Experiment: Ratio of drug level in S180 tumor to muscleKM mouse at 240 to 370 kBq, iv after 5 mins
Type: ADME, organism-based, KM
Details: in vivo

tumor/muscle ratio	SMILES
0.81	OC[C@H]1O[C@@H](O)[C@H]([18F])[C@@H](O)[C@@H]1O [FLUDEOXYGLUCOSE-F18]

Tested on: not listed separately
Experiment: Ratio of drug level in S180 tumor to muscleKM mouse at 240 to 370 kBq, iv after 15 mins
Type: ADME, organism-based, KM
Details: in vivo, 0.25 h

tumor/muscle ratio	SMILES
1.37	OC[C@H]1O[C@@H](O)[C@H]([18F])[C@@H](O)[C@@H]1O [FLUDEOXYGLUCOSE-F18]

Tested on: not listed separately
Experiment: Ratio of drug level in S180 tumor to muscleKM mouse at 240 to 370 kBq, iv after 30 mins
Type: ADME, organism-based, KM
Details: in vivo, 0.5 h

tumor/muscle ratio	SMILES
1.75	OC[C@H]1O[C@@H](O)[C@H]([18F])[C@@H](O)[C@@H]1O [FLUDEOXYGLUCOSE-F18]

Tested on: not listed separately
Experiment: Ratio of drug level in S180 tumor to muscleKM mouse at 240 to 370 kBq, iv after 60 mins
Type: ADME, organism-based, KM
Details: in vivo, 1 h

tumor/muscle ratio	SMILES
2.23	OC[C@H]1O[C@@H](O)[C@H]([18F])[C@@H](O)[C@@H]1O [FLUDEOXYGLUCOSE-F18]
